Measured values from ChEMBL document CHEMBL1124041, “Conformational and steric aspects of the inhibition of phenylethanolamine N-methyltransferase by benzylamines” (J Med Chem, 1988).

Columns and labels:
[1] = target: T1, Phenylethanolamine N-methyltransferase (Bos taurus) (UniProt P10938); experiment: Molar pI50 value for phenylethanolamine N-methyl-transferase (PNMT) inhibition
T1 sequence (whole entry): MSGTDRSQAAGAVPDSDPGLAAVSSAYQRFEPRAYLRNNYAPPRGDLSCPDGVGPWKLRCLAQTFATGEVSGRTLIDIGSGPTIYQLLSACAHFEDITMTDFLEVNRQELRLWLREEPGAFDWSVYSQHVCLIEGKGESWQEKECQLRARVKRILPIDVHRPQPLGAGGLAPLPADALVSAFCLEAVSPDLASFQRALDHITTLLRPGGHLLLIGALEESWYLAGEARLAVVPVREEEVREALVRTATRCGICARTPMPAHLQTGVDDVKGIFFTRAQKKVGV

[2] = target: T1, Phenylethanolamine N-methyltransferase (Bos taurus); experiment: Acid dissociation constant of phenylethanolamine N-methyl-transferase (PNMT) inhibition
[3] = target: T2, Phenylethanolamine N-methyltransferase (Bos taurus, UniProt P10938); experiment: Inhibition of phenylethanolamine N-methyl-transferase (PNMT)
T2 sequence (P10938 whole entry): T1 sequence (whole entry)

pI50 [1] [M]	pKa [2]	Structure (SMILES)	Ki [3] [µM]
3.16	9.54	Cc1ccc(CN)cc1	–
–	7.35	NCc1cccc(Cl)c1Cl	–
–	–	c1ccc2c(c1)C1CC[C@H]2N1	> 2000
–	–	NC1CC2C[C@@H]1c1ccccc12 (some centres not stated)	479
–	–	N[C@@H]1CC2CCC1c1ccccc12 (some centres not stated)	> 1000
–	–	c1cc2c3c(c1)CC[C@@H]3CCC2	52
4.07	9.14	NCc1ccc(Cl)cc1	–
–	9.38	NCc1ccccc1	–
–	–	c1ccc2c(c1)CC1CC[C@H]2N1	153
–	–	CC1Cc2ccccc2CN1 (configuration not stated)	3
3.17	9.3	NCc1ccc(F)cc1	–
–	–	c1ccc2c(c1)C1CC[C@H]2NC1	> 2000
3.82	9.45	Cc1cccc(CN)c1	–
2.78	9.51	COc1ccc(CN)cc1	–

Structure (SMILES)	pI50 [1] [M]	pKa [2]	Ki [3] [µM]
NCc1cccc(Br)c1	5.17	8.98	–
NCc1cccc(Cl)c1	5.07	9.01	–
NCc1cccc(F)c1	4	9.04	–
NCc1ccc(Br)cc1	4.37	9.13	–
